Results from patent publication US20250302746A1, “METHOD FOR PRODUCING EMULSIFIED COMPOSITION” (Daicel Corporation, priority 2022, published 2025).

Assays:
[1] = Test Example 4: transmittance of emulsified composition (660 nm, optical path 10 mm); type: physicochemical; settings: balance glycerol, heated 120° C. 3 min, 15000 rpm
Description: (§1) The transmittance of the emulsified composition produced in this example was determined as a transmittance for light having a wave length of 660 nm at a measurement optical path length of 10 mm using an ultraviolet-visible spectrophotometer UV-1800 (manufactured by Shimadzu Corporation). In the following test, a case where the transmittance was less than 40% was indicated by “C”, a case where the transmittance was 40% or greater and less than 80% was indicated by “B”, and a case where the transmittance was 80% or greater was indicated by “A”.
(§2) A solution having a composition of parts by weight shown in Table 4 (a solution in which the balance is glycerol and the total is 100 parts by weight) was prepared and heated at 120° C. for 3 minutes using a block heater. During being heated, the solution was mixed using a polytron homogenizer at 15000 rpm. Thereafter, the solution was allowed to stand at room temperature (about 25° C.) and the temperature of the solution was lowered to room temperature (about 25° C.) to produce an emulsified composition, and the transmittance was measured.

[2] = cited from earlier work
[3] = Test Example 3: transmittance of emulsified composition (660 nm, optical path 10 mm); type: physicochemical; settings: balance glycerol, 15000 rpm
Description: as §1
as §2, with “3” for “4”, “a heating temperature shown in Table 3” for “120° C.”

[4] = Test Example 2: transmittance of emulsified composition (660 nm, optical path 10 mm); type: physicochemical; settings: balance glycerol, heated 120° C. 3 min, 15000 rpm
Description: as §1
as §2, with “2” for “4”

[5] = Test Example 1: transmittance of emulsified composition (660 nm, optical path 10 mm); type: physicochemical; settings: balance glycerol, 10000 rpm
Description: as §1
as §2, with “1” for “4”, “a heating temperature shown in Table 1” for “120° C.”, “10000” for “15000”

[6] = urolithin 0.5, RYOTO polyglyester L-7D (HLB 17.0) 50 parts by weight
[7] = Urolithin A 0.1, Decaglyn 1-LF (HLB 15.5) 5 parts by weight, heated 100° C. 3 min
[8] = Urolithin A 0.1, Decaglyn 1-LF (HLB 15.5) 5 parts by weight, heated 120° C. 3 min
[9] = Urolithin A 0.1, RYOTO polyglyester L-7D (HLB 17.0) 5 parts by weight, heated 100° C. 3 min
[10] = Urolithin A 0.1, RYOTO polyglyester L-7D (HLB 17.0) 5 parts by weight, heated 120° C. 3 min
[11] = urolithin 0.1, RYOTO polyglyester L-7D (HLB 17.0) 50 parts by weight

For `O=c1oc2cc(O)ccc2c2cc(O)ccc12` [Isourolithin A, isourolithin A], the Transmittance results [1, 6] was “B (the transmittance was 40% or greater and less than 80%)”.

For `O=c1oc2cc(O)ccc2c2ccc(O)cc12` [Urolithin A, urolithin A], the oil solubility ([2]; background statement) is given as “low”, the “solubility in high-temperature vegetable oil or the like” value ([2]; background statement) is given as “not soluble” and the solubility in water ([2]; water at 30° C. (Patent Document 4)) is given as “about 3.5 mg/L”. For the same compound, the Transmittance results [3, 7] was “C (the transmittance was less than 40%)”, the Transmittance results ([3]; Urolithin A 0.1, Decaglyn 1-LF (HLB 15.5) 5 parts by weight, heated 105° C. 3 min) was “C (the transmittance was less than 40%)” and the Transmittance results [3, 8] was “B (the transmittance was 40% or greater and less than 80%)”. The Transmittance results ([3]; Urolithin A 0.1, Decaglyn 1-LF (HLB 15.5) 50 parts by weight, heated 100° C. 3 min) was “C (the transmittance was less than 40%)”, the Transmittance results ([3]; Urolithin A 0.1, Decaglyn 1-LF (HLB 15.5) 50 parts by weight, heated 105° C. 3 min) was “A (the transmittance was 80% or greater)” and the Transmittance results ([3]; Urolithin A 0.1, Decaglyn 1-LF (HLB 15.5) 50 parts by weight, heated 120° C. 3 min) was “A (the transmittance was 80% or greater)”. For the same compound, the Transmittance results [3, 9] was “C (the transmittance was less than 40%)”, the Transmittance results ([3]; Urolithin A 0.1, RYOTO polyglyester L-7D (HLB 17.0) 5 parts by weight, heated 105° C. 3 min) was “C (the transmittance was less than 40%)” and the Transmittance results [3, 10] was “A (the transmittance was 80% or greater)”. For the same compound, the Transmittance results ([3]; Urolithin A 0.1, RYOTO polyglyester L-7D (HLB 17.0) 50 parts by weight, heated 100° C. 3 min) was “C (the transmittance was less than 40%)”, the Transmittance results ([3]; Urolithin A 0.1, RYOTO polyglyester L-7D (HLB 17.0) 50 parts by weight, heated 105° C. 3 min) was “A (the transmittance was 80% or greater)” and the Transmittance results ([3]; Urolithin A 0.1, RYOTO polyglyester L-7D (HLB 17.0) 50 parts by weight, heated 120° C. 3 min) was “A (the transmittance was 80% or greater)”. The Transmittance results ([4]; Urolithin A 0.2, Decaglyn 1-LF (HLB 15.5) 5 parts by weight) was “C (the transmittance was less than 40%)”, the Transmittance results ([4]; Urolithin A 0.2, Decaglyn 1-LF (HLB 15.5) 10 parts by weight) was “B (the transmittance was 40% or greater and less than 80%)” and the Transmittance results ([4]; Urolithin A 0.2, Decaglyn 1-LF (HLB 15.5) 50 parts by weight) was “A (the transmittance was 80% or greater)”. The Transmittance results ([4]; Urolithin A 0.2, RYOTO polyglyester L-7D (HLB 17.0) 5 parts by weight) was “C (the transmittance was less than 40%)”, the Transmittance results ([4]; Urolithin A 0.2, RYOTO polyglyester L-7D (HLB 17.0) 10 parts by weight) was “B (the transmittance was 40% or greater and less than 80%)” and the Transmittance results ([4]; Urolithin A 0.2, RYOTO polyglyester L-7D (HLB 17.0) 50 parts by weight) was “A (the transmittance was 80% or greater)”. For the same compound, the Transmittance results ([4]; Urolithin A 0.5, RYOTO polyglyester L-7D (HLB 17.0) 50 parts by weight) was “A (the transmittance was 80% or greater)”, the Transmittance results ([5]; Urolithin A 0.1, Decaglyn 1-LF (HLB 15.5) 5 parts by weight, heated 80° C. 3 min) was “C (the transmittance was less than 40%)” and the Transmittance results [5, 7] was “C (the transmittance was less than 40%)”. The Transmittance results [5, 8] was “B (the transmittance was 40% or greater and less than 80%)”, the Transmittance results ([5]; Urolithin A 0.1, Decaglyn 1-MF (HLB 14.0) 5 parts by weight, heated 80° C. 3 min) was “C (the transmittance was less than 40%)” and the Transmittance results ([5]; Urolithin A 0.1, Decaglyn 1-MF (HLB 14.0) 5 parts by weight, heated 100° C. 3 min) was “C (the transmittance was less than 40%)”. The Transmittance results ([5]; Urolithin A 0.1, Decaglyn 1-MF (HLB 14.0) 5 parts by weight, heated 120° C. 3 min) was “B (the transmittance was 40% or greater and less than 80%)”, the Transmittance results ([5]; Urolithin A 0.1, Decaglyn 1-OVF (HLB 12.0) 5 parts by weight, heated 80° C. 3 min) was “C (the transmittance was less than 40%)” and the Transmittance results ([5]; Urolithin A 0.1, Decaglyn 1-OVF (HLB 12.0) 5 parts by weight, heated 100° C. 3 min) was “C (the transmittance was less than 40%)”. The Transmittance results ([5]; Urolithin A 0.1, Decaglyn 1-OVF (HLB 12.0) 5 parts by weight, heated 120° C. 3 min) was “B (the transmittance was 40% or greater and less than 80%)”, the Transmittance results ([5]; Urolithin A 0.1, RYOTO polyglyester L-7D (HLB 17.0) 5 parts by weight, heated 80° C. 3 min) was “C (the transmittance was less than 40%)” and the Transmittance results [5, 9] was “C (the transmittance was less than 40%)”. For the same compound, the Transmittance results [5, 10] was “A (the transmittance was 80% or greater)”, the Transmittance results ([5]; Urolithin A 0.1, RYOTO polyglyester O-15D (HLB 13.0) 5 parts by weight, heated 80° C. 3 min) was “C (the transmittance was less than 40%)” and the Transmittance results ([5]; Urolithin A 0.1, RYOTO polyglyester O-15D (HLB 13.0) 5 parts by weight, heated 100° C. 3 min) was “C (the transmittance was less than 40%)”. For the same compound, the Transmittance results ([5]; Urolithin A 0.1, RYOTO polyglyester O-15D (HLB 13.0) 5 parts by weight, heated 120° C. 3 min) was “B (the transmittance was 40% or greater and less than 80%)”, the Transmittance results ([5]; Urolithin A 0.1, RYOTO polyglyester O-50D (HLB 7) 5 parts by weight, heated 80° C. 3 min) was “C (the transmittance was less than 40%)” and the Transmittance results ([5]; Urolithin A 0.1, RYOTO polyglyester O-50D (HLB 7) 5 parts by weight, heated 100° C. 3 min) was “C (the transmittance was less than 40%)”. For the same compound, the Transmittance results ([5]; Urolithin A 0.1, RYOTO polyglyester O-50D (HLB 7) 5 parts by weight, heated 120° C. 3 min) was “C (the transmittance was less than 40%)”, the Transmittance results ([5]; Urolithin A 0.1, Sugar ester S-1170 (HLB about 11) 5 parts by weight, heated 80° C. 3 min) was “C (the transmittance was less than 40%)” and the Transmittance results ([5]; Urolithin A 0.1, Sugar ester S-1170 (HLB about 11) 5 parts by weight, heated 100° C. 3 min) was “C (the transmittance was less than 40%)”. The Transmittance results ([5]; Urolithin A 0.1, Sugar ester S-1170 (HLB about 11) 5 parts by weight, heated 120° C. 3 min) was “C (the transmittance was less than 40%)”.

In the case of `O=c1oc2cc(O)ccc2c2ccccc12` [Urolithin B, urolithin B], the Transmittance results ([1]; urolithin 1.0, RYOTO polyglyester L-7D (HLB 17.0) 50 parts by weight) is reported as “A (the transmittance was 80% or greater)”.

In the case of `O=c1oc2cc(O)ccc2c2cc(O)c(O)cc12` [Urolithin C, urolithin C], the Transmittance results [1, 11] is reported as “A (the transmittance was 80% or greater)”.

In the case of `O=c1oc2c(O)c(O)ccc2c2c(O)c(O)c(O)cc12` [Urolithin M5, urolithin M5], the Transmittance results [1, 11] is reported as “A (the transmittance was 80% or greater)”.

For `O=c1oc2cc(O)ccc2c2c(O)c(O)c(O)cc12` [Urolithin M6, urolithin M6], the Transmittance results [1, 6] was “A (the transmittance was 80% or greater)”.

For `O=c1oc2cc(O)ccc2c2c(O)cc(O)cc12` [Urolithin M7, urolithin M7], the Transmittance results [1, 11] was “A (the transmittance was 80% or greater)”.

With urolithin M8 the Transmittance results [1, 6] was “A (the transmittance was 80% or greater)”.
